# Laboratory results from US20110212968A1, “PHENETHYLAMIDE DERIVATIVES AND THEIR HETEROCYCLIC ANALOGUES” (priority 2008, published 2011).
# Experiments:
# [1] = target: T1, human orexin-2 receptor (Homo sapiens, UniProt O43614); assay: Intracellular calcium measurement (FLIPR Tetra), orexin receptor antagonistic activity, OX2; type: cell-based; settings: CHO cells expressing human orexin-2 receptor, 3 nM orexin-A, conditions B
# T1 construct: expressed in transfected cells; host or cells: CHO (Chinese hamster ovary) cells, kept under G418 selection
# T1 sequence (O43614 1-444): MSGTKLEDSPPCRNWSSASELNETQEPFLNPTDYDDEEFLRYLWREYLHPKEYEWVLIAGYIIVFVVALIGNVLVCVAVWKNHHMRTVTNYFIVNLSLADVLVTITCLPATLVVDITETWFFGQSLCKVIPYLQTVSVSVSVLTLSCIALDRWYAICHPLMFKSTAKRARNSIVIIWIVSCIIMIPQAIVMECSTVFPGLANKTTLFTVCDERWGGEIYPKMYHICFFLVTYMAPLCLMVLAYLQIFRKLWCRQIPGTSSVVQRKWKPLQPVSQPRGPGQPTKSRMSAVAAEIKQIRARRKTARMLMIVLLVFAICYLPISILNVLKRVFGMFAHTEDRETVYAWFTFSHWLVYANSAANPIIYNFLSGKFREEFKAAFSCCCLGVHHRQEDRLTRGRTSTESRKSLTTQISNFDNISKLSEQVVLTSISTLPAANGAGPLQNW
# How it was run: (§1)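 Recombinant CHO cells expressing human OX1 or OX2, loaded with fluo-4 AM plus probenecid, were preincubated with antagonist 10 min, then stimulated with 3 nM human orexin-A. Peak fluorescence was compared with vehicle; IC50 derived, sometimes normalized to an on-plate reference compound; two pipetting/cell-splitting conditions were used.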
# [2] = target: T2, human orexin-1 receptor (Homo sapiens, UniProt O43613); assay: Intracellular calcium measurement (FLIPR Tetra), orexin receptor antagonistic activity, OX1; type: cell-based; settings: CHO cells expressing human orexin-1 receptor, 3 nM orexin-A, conditions B
# T2 construct: expressed in transfected cells; host or cells: CHO (Chinese hamster ovary) cells, kept under G418 selection
# T2 sequence (O43613 1-425): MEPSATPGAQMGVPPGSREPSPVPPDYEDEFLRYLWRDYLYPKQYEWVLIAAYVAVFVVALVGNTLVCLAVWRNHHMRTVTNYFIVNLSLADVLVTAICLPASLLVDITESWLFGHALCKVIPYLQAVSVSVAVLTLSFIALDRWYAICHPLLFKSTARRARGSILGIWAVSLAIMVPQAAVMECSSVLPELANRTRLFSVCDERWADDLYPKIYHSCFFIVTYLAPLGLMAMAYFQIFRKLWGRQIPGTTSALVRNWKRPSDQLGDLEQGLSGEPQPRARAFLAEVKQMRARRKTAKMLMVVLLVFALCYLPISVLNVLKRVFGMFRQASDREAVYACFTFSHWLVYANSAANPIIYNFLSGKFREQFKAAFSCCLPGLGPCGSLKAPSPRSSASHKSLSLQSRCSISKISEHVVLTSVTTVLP
# How it was run: as §1
# [3] = normalized (*) using IC50 of on-plate reference compound
SMILES,"IC50 [1, 3] [µM]","IC50 [2, 3] [µM]",IC50 [1] [µM],IC50 [2] [µM]
"COc1ccc2[nH]cc(CCN(CC3CC3)C(=O)c3nccnc3-c3ccccc3)c2c1 [Example 322, 3-Phenyl-pyrazine-2-carboxylic acid cyclopropylmethyl-[2-(5-methoxy-1H-indol-3-yl)-ethyl]-amide]",0.024,0.19,,
"Cc1ccc2[nH]cc(CCN(CC3CC3)C(=O)c3nccnc3-c3ccccc3)c2c1 [Example 324, 3-Phenyl-pyrazine-2-carboxylic acid cyclopropylmethyl-[2-(5-methyl-1H-indol-3-yl)-ethyl]-amide]",0.008,0.077,,
"Cc1cccc2c(CCN(CC3CC3)C(=O)c3nccnc3-c3ccccc3)c[nH]c12 [Example 326, 3-Phenyl-pyrazine-2-carboxylic acid cyclopropylmethyl-[2-(7-methyl-1H-indol-3-yl)-ethyl]-amide]",0.008,0.076,,
"Cc1ccc(-c2nccnc2C(=O)N(CCc2cn(C)c3ccccc23)CC2CC2)cc1C [Example 330, 3-(3,4-Dimethyl-phenyl)-pyrazine-2-carboxylic acid cyclopropylmethyl-[2-(1-methyl-1H-indol-3-yl)-ethyl]-amide]",0.008,0.018,,
"Cc1ccc(-c2nccnc2C(=O)N(CCc2c[nH]c3cc(Cl)ccc23)CC2CC2)cc1C [Example 331, 3-(3,4-Dimethyl-phenyl)-pyrazine-2-carboxylic acid [2-(6-chloro-1H-indol-3-yl)-ethyl]-cyclopropylmethyl-amide]",0.022,0.062,,
"COc1ccc(-c2sc(C)nc2C(=O)N(CCc2cn(C)c3ccccc23)CC2CC2)cn1 [Example 341, 5-(6-Methoxy-pyridin-3-yl)-2-methyl-thiazole-4-carboxylic acid cyclopropylmethyl-[2-(1-methyl-1H-indol-3-yl)-ethyl]-amide]",0.036,0.018,,
COc1ccc(-c2cccnc2C(=O)N(CCc2c[nH]c3cc(Cl)ccc23)CC2CC2)cn1 [Example 353],0.023,0.087,,
COc1ccc(-c2cccnc2C(=O)N(CCc2c[nH]c3cc(F)ccc23)CC2CC2)cn1 [Example 361],0.06,0.035,,
"COc1ccc2nc(CCN(CC3CC3)C(=O)c3ncccc3-c3ccc(OC)nc3)[nH]c2c1 [Example 371, 6′-Methoxy-[3,3′]bipyridinyl-2-carboxylic acid cyclopropylmethyl-[2-(6-methoxy-1H-benzoimidazol-2-yl)-ethyl]-amide]",0.089,1.86,,
"Cc1ccc(-c2nccnc2C(=O)N(CCc2nc3cc(C)c(C)cc3[nH]2)CC2CC2)cc1C [Example 374, 3-(3,4-Dimethyl-phenyl)-pyrazine-2-carboxylic acid cyclopropylmethyl-[2-(5,6-dimethyl-1H-benzoimidazol-2-yl)-ethyl]-amide]",0.035,0.102,,
"COc1cccc(-c2cnccc2C(=O)N(CCc2ccc(OC)c(OC)c2)CC2CC2)c1 [Example 389, N-Cyclopropylmethyl-N-[2-(3,4-dimethoxy-phenyl)-ethyl]-3-(3-methoxy-phenyl)-isonicotinamide]",,,0.006,0.282
"COc1cccc(-c2cccnc2C(=O)N(CCc2ccc(OC)c(OC)c2)CC2CC2)c1 [Example 393, 3-(3-Methoxy-phenyl)-pyridine-2-carboxylic acid cyclopropyl-methyl-[2-(3,4-dimethoxy-phenyl)-ethyl]-amide]",,,0.003,0.108
"COc1ccc(CCN(CC2CC2)C(=O)c2cccnc2-c2cccc(C)c2)cc1OC [Example 394, N-Cyclopropylmethyl-N-[2-(3,4-dimethoxy-phenyl)-ethyl]-2-m-tolyl-nicotinamide]",,,0.004,0.156
"COc1cccc(-c2ncccc2C(=O)N(CCc2ccc(OC)c(OC)c2)CC2CC2)c1 [Example 397, N-Cyclopropylmethyl-N-[2-(3,4-dimethoxy-phenyl)-ethyl]-2-(3-methoxy-phenyl)-nicotinamide]",,,0.007,0.266
"Cc1cncc(-c2cccnc2C(=O)N(CCc2c[nH]c3ccc(F)cc23)CC2CC2)c1 [Example 402, 5′-Methyl-[3,3′]bipyridinyl-2-carboxylic acid cyclopropylmethyl-[2-(5-fluoro-1H-indol-3-yl)-ethyl]-amide]",0.072,0.7,,
"O=C(c1ncccc1-c1cc(Cl)cnc1F)N(CCc1c[nH]c2ccc(F)cc12)CC1CC1 [Example 403, 5′-Chloro-2′-fluoro-[3,3′]bipyridinyl-2-carboxylic acid cyclopropylmethyl-[2-(5-fluoro-1H-indol-3-yl)-ethyl]-amide]",0.23,3.83,,

# Other lines, results leading:
"IC50 [1, 3] [µM]","IC50 [2, 3] [µM]",IC50 [1] [µM],IC50 [2] [µM],SMILES
0.005,0.016,,,"Cc1ccc(-c2nccnc2C(=O)N(CCc2c[nH]c3c(C)cccc23)CC2CC2)cc1C [Example 337, 3-(3,4-Dimethyl-phenyl)-pyrazine-2-carboxylic acid cyclopropylmethyl-[2-(7-methyl-1H-indol-3-yl)-ethyl]-amide]"
0.053,0.099,,,"Cc1ccc(-c2nccnc2C(=O)N(CCc2c[nH]c3c(F)cccc23)CC2CC2)cc1C [Example 340, 3-(3,4-Dimethyl-phenyl)-pyrazine-2-carboxylic acid cyclopropylmethyl-[2-(7-fluoro-1H-indol-3-yl)-ethyl]-amide]"
0.017,0.004,,,"COc1ccc(-c2sc(C)nc2C(=O)N(CCc2c[nH]c3cc(F)ccc23)CC2CC2)cn1 [Example 350, 5-(6-Methoxy-pyridin-3-yl)-2-methyl-thiazole-4-carboxylic acid cyclopropylmethyl-[2-(6-fluoro-1H-indol-3-yl)-ethyl]-amide]"
0.037,0.02,,,"COc1ccc(-c2cccnc2C(=O)N(CCc2cn(C)c3ccccc23)CC2CC2)cn1 [Example 352, 6′-Methoxy-[3,3′]bipyridinyl-2-carboxylic acid cyclopropylmethyl-[2-(1-methyl-1H-indol-3-yl)-ethyl]-amide]"
0.03,0.014,,,COc1ccc(-c2cccnc2C(=O)N(CCc2c[nH]c3ccc(C)cc23)CC2CC2)cn1 [Example 357]
0.261,0.114,,,"Cc1ccc(-c2sc(N(C)C)nc2C(=O)N(CCc2nc3cc(C)c(C)cc3[nH]2)CC2CC2)cc1C [Example 377, 2-Dimethylamino-5-(3,4-dimethyl-phenyl)-thiazole-4-carboxylic acid cyclopropylmethyl-[2-(5,6-dimethyl-1H-benzoimidazol-2-yl)-ethyl]-amide]"
0.012,0.427,,,"COc1ccc(-c2sc(C)nc2C(=O)N(CCc2c[nH]c3cc4c(cc23)OCO4)CC2CC2)cn1 [Example 382, 5-(6-Methoxy-pyridin-3-yl)-2-methyl-thiazole-4-carboxylic acid cyclopropylmethyl-[2-(5H-[1,3]dioxolo[4,5-f]indol-7-yl)-ethyl]-amide]"
,,0.005,0.234,"COc1ccc(CCN(CC2CC2)C(=O)c2ccncc2-c2cccc(C)c2)cc1OC [Example 386, N-Cyclopropylmethyl-N-[2-(3,4-dimethoxy-phenyl)-ethyl]-3-m-tolyl-isonicotinamide]"
,,0.004,0.182,"COc1ccc(CCN(CC2CC2)C(=O)c2ncccc2-c2cccc(C)c2)cc1OC [Example 390, 3-m-Tolyl-pyridine-2-carboxylic acid cyclopropylmethyl-[2-(3,4-dimethoxy-phenyl)-ethyl]-amide]"
,,0.004,0.388,COc1ccc(CCN(CC2CC2)C(=O)c2ncccc2-c2ccc(C)cc2)cc1OC [Example 391]
,,0.01,0.286,"COc1ccc(CCN(CC2CC2)C(=O)c2cccnc2-c2ccc(C)cc2)cc1OC [Example 395, N-Cyclopropylmethyl-N-[2-(3,4-dimethoxy-phenyl)-ethyl]-2-p-tolyl-nicotinamide]"
0.011,0.062,,,"COc1ccc(-c2cccnc2C(=O)N(CCc2c[nH]c3ccc(F)cc23)CC2CC2)cn1 [Example 400, 6′-Methoxy-[3,3′]bipyridinyl-2-carboxylic acid cyclopropylmethyl-[2-(5-fluoro-1H-indol-3-yl)-ethyl]-amide]"
